Results from patent publication US6664224B2, “Quaternary ammonium salt and process for the preparation thereof” (priority 2000, dated 2003).

Tests used:
Erythrocyte = assay: Minimum hemolytic activity concentration against erythrocyte; type: cell-based; settings: human erythrocyte, 37° C. 1 hour, O.D.540, 50% hemolysis
Protocol: Human blood was collected. The sample blood was then mixed with the equal amount of alsebar solution (glucose: 2.05 g; NaCl: 0.42 g; sodium citrate: 0.8 g; citric acid: 0.55 g; pH: 6.1). The mixture was then stored at a temperature of 4° C. Shortly before used for experiment, the alsebar stored blood was subjected to centrifugal separation. Thus, the supernatant liquid and the leukocyte layer on the erythrocyte were removed. To the erythrocyte was then added PBS in an amount of […] that of the erythrocyte to obtain a 50% erythrocyte. 10 μl of the 50% erythrocyte was then mixed with 990 μl of each of chemicals which had been diluted with PBS in amounts varying stepwise. The erythrocyte was acted upon by the chemical at a temperature of 37° C. for 1 hour. The mixture was then subjected to centrifugal separation. The supernatant liquid was collected for the measurement of the optical density at 540 nm (O.D.540). Separately, the foregoing procedure was followed except that no chemicals were used to prepare a 0% hemolytic control. The foregoing procedure was followed except that Milliq water was used instead of PBS to prepare a 100% hemolytic control. For the minimum hemolytic activity concentration of chemical, the minimum concentration at which the hemolytic concentration is […] was determined.

[1] = tested on: Bacillus substilis ATCC 6633; assay: Minimum bactericidal concentration (MBC) against bacteria; type: cell-based, Bacillus subtilis; settings: contact 30° C. 30 minutes, culture 37° C. 24 hours
Protocol: (§1) A bacteria solution in the initial stage of logarithmic productive phase which had been adjusted with a nutrient broth according to an ordinary sterilized water dilution method such that the concentration of bacterial suspension reached 10^6 cell/ml was brought into contact with chemical solutions having concentrations which vary stepwise at a temperature of 30° C. for 30 minutes, and then transplanted to a nutrient broth where it was then allowed to stand at a temperature of 37° C. for 24 hours for culture. The nutrient broth was then examined to see if the proliferation of bacteria occurred. Thus, MBC was determined.
(§2) Five kinds of gram-negative bacteria and four kinds of gram-positive bacteria were used as sample bacteria.
(§3) BAMP-6 (Example 12), BAMD-6,8 (Example 13), BAMT-6 (Example 17) and benzalkonium chloride (Comparative Example 1) were determined for MBC value against 5 kinds of gram-negative bacteria and 4 kinds of gram-positive bacteria in the same manner as in Test Example 1.

rat = assay: Oral toxicity test on rat (LD50); type: in vivo
Protocol: The quaternary ammonium salt of the invention is a compound having an extremely high safety, i.e., LD50 (rat) of not smaller than 2,000 mg/kg in oral toxicity test on rat.
The sample 4BAMP-6C thus obtained was then determined for oral toxicity (LD50: rat). The results were greater than 2,000 mg/kg.

[2] = tested on: Escherichia coli K12 W 3110; assay: Minimum development inhibiting concentration (MIC) against bacteria, broth dilution method; type: cell-based; settings: 37° C. 24 hours
Protocol: A bacteria solution in stationary state which had been adjusted with a nutrient broth according to an ordinary broth dilution method such that the concentration of bacterial suspension reached 10^6 cell/ml was added to chemical solutions having concentrations which vary stepwise where it was then allowed to stand at a temperature of 37° C. for 24 hours for culture. The bacteria solution was then examined to see if the proliferation of bacteria occurred. Thus, MIC was determined.
Escherichia coli K12 W 3110 was used as a sample bacterium. Compounds obtained in Examples 1 to 9 and benzalkonium chloride prepared in Comparative Example 1 were used as test samples.
The compounds obtained in Examples 10 to 19 and benzalkonium chloride were determined for MIC value against Escherichia coli K12 W 3110 in the same manner as in Test Example 3.

[3] = tested on: Staphylococcus aureus IFO 12732; assay: Minimum bactericidal concentration (MBC) against bacteria; type: cell-based; settings: contact 30° C. 30 minutes, culture 37° C. 24 hours
Protocol: as §1, §2, §3

Bacillus cereus IFO 3001 = assay: as above; type: cell-based; settings: contact 30° C. 30 minutes, culture 37° C. 24 hours
Protocol: as §1, §2, §3

[4] = tested on: Klebsiella pneumoniae ATCC 13883; assay: as above; type: cell-based; settings: contact 30° C. 30 minutes, culture 37° C. 24 hours
Protocol: as §1, §2, §3

[5] = tested on: Pseudomonas aeruginosa ATCC 27583; assay: as above; type: cell-based; settings: contact 30° C. 30 minutes, culture 37° C. 24 hours
Protocol: as §1, §2, §3

[6] = tested on: Bacillus subtilis IFO 3134; assay: as above; type: cell-based; settings: contact 30° C. 30 minutes, culture 37° C. 24 hours
Protocol: as §1, §2, §3

[7] = tested on: Escherichia coli K12 W 3110; assay: as above; type: cell-based; settings: contact 30° C. 30 minutes, culture 37° C. 24 hours
Protocol: as §1, §2, §3

[8] = tested on: Escherichia coli K12 OUT 8401; assay: as above; type: cell-based; settings: contact 30° C. 30 minutes, culture 37° C. 24 hours
Protocol: as §1, §2, §3

Proteus rettgeri NIT 96 = assay: as above; type: cell-based; settings: contact 30° C. 30 minutes, culture 37° C. 24 hours
Protocol: as §1, §2, §3

[9] = tested on: Staphylococcus aureus IFO 12732; assay: MIC by agar plate dilution method; type: cell-based; settings: S. aureus, 37° C. 24 hours
Protocol: (§4) MIC value was determined by an agar plate dilution method according to the Law of Japanese Society of Chemotherapy. In some detail, a bacteria solution in stationary state which had been adjusted with a nutrient broth such that the concentration of bacterial suspension reached 10^6 cell/ml was added to agar culture media containing chemical solutions having concentrations which vary in two stages where it was then allowed to stand at a temperature of 37° C. for 24 hours for culture. The bacteria solution was then examined to see if the proliferation of bacteria occurred. Thus, MIC was determined.
(§5) The following three kinds of bacteria were used as sample bacteria:
Staphylococcus aureus IFO 12732 (S. aureus)

[10] = tested on: Aspergillus niger IFO 6431; assay: Minimum development inhibiting concentration (MIC) against fungi; type: cell-based; settings: A. niger; spore solution, 27° C. 1 week
Protocol: (§6) A sample fungus which had been pre-cultured was diluted with a wetting agent-containing sterilized water according to an ordinary broth dilution method to prepare a spore solution. 1 ml of the spore solution was then mixed with 1 ml of each of chemical solutions having concentrations which vary stepwise. The mixture was then cultured at a temperature of 27° C. in an incubator for 1 week. The culture was then examined for turbidity to see if the proliferation of fungus occurred. The minimum concentration at which no turbidity occurs was defined to be MIC.
(§7) Aspergillus niger IFO 6431 (A. niger) and Candida albicans ATCC10231 (C. albicans) were used as sample microorganisms.

[11] = tested on: Candida albicans ATCC10231; assay: as above; type: cell-based; settings: C. albicans; spore solution, 27° C. 1 week
Protocol: as §6, §7

[12] = tested on: Pseudomonas aeruginosa ATCC27583; assay: MIC by agar plate dilution method; type: cell-based; settings: P. aeruginosa, 37° C. 24 hours
Protocol: as §4, §5
Pseudomonas aeruginosa ATCC27583 (P. auruginosa); and […]

[13] = tested on: Escherichia coli K12 W 3110; assay: MIC by agar plate dilution method; type: cell-based; settings: E. coli, 37° C. 24 hours
Protocol: as §4, §5
Escherichia coliK12 W 3110 (E. coli);

Row | Substance | Minimum hemolytic activity concentration Erythrocyte (Erythrocyte) | MBC [1] [ppm] | oral toxicity LD50 (rat) | MIC Escherichia coli K12 W 3110 [2] [ppm] | MBC [3] [ppm] | MBC (Bacillus cereus IFO 3001) [ppm] | MBC [4] [ppm] | MBC [5] [ppm] | MBC [6] [ppm] | MBC [7] [ppm] | MBC [8] [ppm] | MBC (Proteus rettgeri NIT 96) [ppm] | MIC [9] [ppm] | MIC [10] [ppm] | MIC [11] [ppm] | MIC [12] [ppm] | MIC [13] [ppm]
1 | 1,4-bis(N,N-dihexyl-N-methylammoniomethyl)-2,3,5,6-tetramethylphenylene dichloride [BAMD-6] | 400 ppm | <2 | greater than 2,000 mg/kg | 1 | <2 | <2 | <2 | 4 | <2 | 4 | <2 | <2 | – | – | – | – | –
2 | 1,4-bis(N,N-dihexyl-N-methylammoniomethyl)phenylene di-p-toluenesulfonate [Example 4BAMP-6S] | – | <2 | greater than 2,000 mg/kg | 2 | <2 | 4 | <2 | 8 | <2 | 8 | 4 | <2 | – | – | – | – | –
3 | 1,4-bis(N,N-dipentyl-N-methylammoniomethyl)phenylene dichloride [Example 4BAMP-5C] | 1,600 ppm | – | – | – | – | – | – | – | – | – | – | – | <2 | 16 | 8 | 4 | 16
